In brackets after ≈: the same amount, converted by molar mass.
Legend:
Proline--tRNA ligase = Proline--tRNA ligase (Escherichia coli, UniProt P16659); experiment: Binding affinity to Escherichia coli K12 Prolyl-tRNA synthetase
[1] = molecular target: Phospho-N-acetylmuramoyl-pentapeptide-transferase (Staphylococcus aureus, UniProt P0C1R8); experiment: Inhibition of Staphylococcus aureus MraY
[2] = tested on: Mycolicibacterium smegmatis; experiment: Antibacterial activity against Mycobacterium smegmatis ATCC 607 assessed as bacterial growth inhibition; format: functional
[3] = Inhibition of Bacillus stearothermophilus tyrosyl tRNA synthetase; set-up: species or system Geobacillus stearothermophilus
[4] = tested on: Mycobacterium tuberculosis; experiment: Antimycobacterial activity against Mycobacterium tuberculosis K4 assessed as reduction in bacterial activity; format: functional
Mycobacterium avium [5] = experiment: Antimycobacterial activity against Mycobacterium avium ATCC 25291 assessed as bacterial growth inhibition; format: functional
Pseudomonas aeruginosa [6] = experiment: Antibacterial activity against Pseudomonas aeruginosa assessed as inhibition of bacterial growth incubated for 24 hrs by broth microdilution method; format: functional
Escherichia coli = experiment: Antibacterial activity against Escherichia coli K12 assessed as bacterial growth inhibition by broth microdilution method; format: functional
[7] = molecular target: T1, Phospho-N-acetylmuramoyl-pentapeptide-transferase (Escherichia coli, UniProt E2QF15); experiment: Inhibition of MraY in Escherichia coli
T1 sequence (E2QF15 whole entry): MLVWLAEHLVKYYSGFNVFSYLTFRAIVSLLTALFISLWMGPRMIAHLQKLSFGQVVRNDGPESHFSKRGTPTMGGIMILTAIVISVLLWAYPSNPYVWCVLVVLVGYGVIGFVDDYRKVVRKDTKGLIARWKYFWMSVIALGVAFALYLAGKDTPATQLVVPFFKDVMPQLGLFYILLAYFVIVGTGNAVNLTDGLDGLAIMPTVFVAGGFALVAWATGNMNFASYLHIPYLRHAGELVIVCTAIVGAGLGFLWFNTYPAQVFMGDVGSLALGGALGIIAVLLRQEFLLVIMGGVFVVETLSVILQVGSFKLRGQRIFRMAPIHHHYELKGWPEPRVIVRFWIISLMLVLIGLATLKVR

Candida albicans = experiment: Antifungal activity against wild type Candida albicans; format: functional
[8] = tested on: Mycobacterium tuberculosis; experiment: Antimycobacterial activity against Mycobacterium tuberculosis H37Rv assessed as reduction in bacterial growth; format: functional
Pseudomonas aeruginosa [9] = experiment: Antibacterial activity against Pseudomonas aeruginosa ATCC 27853 assessed as reduction in microbial growth by broth microdilution method; format: functional
[10] = tested on: Staphylococcus epidermidis; experiment: Antibacterial activity against Staphylococcus epidermidis ATCC 12228 assessed as microbial growth inhibition incubated for 24 hrs; format: functional
Enterococcus faecium [11] = experiment: Antibacterial activity against Enterococcus faecium assessed as bacterial growth inhibition incubated for 24 hrs by micro-broth dilution method; format: functional
Streptococcus pneumoniae = experiment: Antibacterial activity against Streptococcus pneumoniae B1 assessed as bacterial growth inhibition incubated for 24 hrs by micro-broth dilution method; format: functional
[12] = tested on: Staphylococcus saprophyticus; experiment: Antibacterial activity against Staphylococcus saprophyticus ATCC 15305 assessed as bacterial growth inhibition after 20 hrs by CLSI based-broth microdilution method; format: functional
Enterococcus faecalis = experiment: Antibacterial activity against Enterococcus faecalis assessed as bacterial growth inhibition incubated for 24 hrs by micro-broth dilution method; format: functional
Streptococcus pyogenes [13] = experiment: Antibacterial activity against Streptococcus pyogenes assessed as bacterial growth inhibition incubated for 24 hrs by micro-broth dilution method; format: functional
Haemophilus influenzae = experiment: Antibacterial activity against Haemophilus influenzae assessed as bacterial growth inhibition incubated for 24 hrs by micro-broth dilution method; format: functional
Moraxella catarrhalis = experiment: Antibacterial activity against Moraxella catarrhalis assessed as bacterial growth inhibition incubated for 24 hrs by micro-broth dilution method; format: functional
Staphylococcus aureus [14] = experiment: Antibacterial activity against Staphylococcus aureus ATCC 25923 assessed as bacterial growth inhibition measured after 18 hrs by CLSI protocol based two-fold serial microdilution method; format: functional
Bacillus subtilis = experiment: Antibacterial activity against Bacillus subtilis assessed as bacterial growth inhibition incubated for 24 hrs by micro-broth dilution method; format: functional
Klebsiella pneumoniae = experiment: Antibacterial activity against Klebsiella pneumoniae assessed as bacterial growth inhibition incubated for 24 hrs by micro-broth dilution method; format: functional
Mycobacterium avium [15] = experiment: Antimycobacterial activity against Mycobacterium avium ATCC 25291 assessed as reduction in microbial growth; format: functional
Pseudomonas aeruginosa [16] = experiment: Antibacterial activity against Pseudomonas aeruginosa assessed as bacterial growth inhibition; format: functional
Pseudomonas aeruginosa [17] = experiment: Antibacterial activity against beta-lactam resistant Pseudomonas aeruginosa assessed as bacterial growth inhibition; format: functional
Streptococcus pyogenes [18] = experiment: Antimicrobial activity against Streptococcus pyogenes ATCC 12344 assessed as reduction in microbial growth by broth microdilution method; format: functional
Enterococcus faecium [19] = experiment: Antimicrobial activity against Enterococcus faecium ATCC 19434 assessed as reduction in microbial growth by broth microdilution method; format: functional
Staphylococcus aureus [20] = experiment: Antimicrobial activity against methicillin-resistant Staphylococcus aureus 10925 assessed as reduction in microbial growth by broth microdilution method; format: functional

Chain of Proline--tRNA ligase (P16659 whole entry): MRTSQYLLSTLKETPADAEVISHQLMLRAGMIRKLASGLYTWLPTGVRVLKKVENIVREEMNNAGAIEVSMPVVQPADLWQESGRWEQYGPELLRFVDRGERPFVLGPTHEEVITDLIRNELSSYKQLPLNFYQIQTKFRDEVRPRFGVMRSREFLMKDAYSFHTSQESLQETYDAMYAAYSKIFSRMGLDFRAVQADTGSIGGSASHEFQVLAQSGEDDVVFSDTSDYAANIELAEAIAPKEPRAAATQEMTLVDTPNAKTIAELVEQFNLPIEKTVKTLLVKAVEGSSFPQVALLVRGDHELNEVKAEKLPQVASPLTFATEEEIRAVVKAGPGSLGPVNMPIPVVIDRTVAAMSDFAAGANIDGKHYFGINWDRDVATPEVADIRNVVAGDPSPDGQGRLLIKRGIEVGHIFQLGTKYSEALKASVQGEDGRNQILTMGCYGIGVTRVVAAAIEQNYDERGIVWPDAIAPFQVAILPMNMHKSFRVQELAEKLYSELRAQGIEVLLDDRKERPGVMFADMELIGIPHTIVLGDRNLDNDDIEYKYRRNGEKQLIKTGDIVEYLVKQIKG
Chain of Phospho-N-acetylmuramoyl-pentapeptide-transferase (Staphylococcus aureus, UniProt P0C1R8) (P0C1R8 whole entry): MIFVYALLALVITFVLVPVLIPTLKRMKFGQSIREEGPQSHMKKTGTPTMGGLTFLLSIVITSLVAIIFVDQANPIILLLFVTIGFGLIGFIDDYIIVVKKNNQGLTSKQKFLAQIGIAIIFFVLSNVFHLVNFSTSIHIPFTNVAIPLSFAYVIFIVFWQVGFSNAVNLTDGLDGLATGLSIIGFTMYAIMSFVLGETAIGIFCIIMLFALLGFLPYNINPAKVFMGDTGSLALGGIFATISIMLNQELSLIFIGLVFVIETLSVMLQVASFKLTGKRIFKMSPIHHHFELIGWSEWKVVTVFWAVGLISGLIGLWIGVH

Which Ki (Proline--tRNA ligase) does the source give for `Nc1ncnc2c1ncn2[C@@H]1O[C@H](COS(=O)(=O)NC(=O)[C@@H]2CCCN2)[C@@H](O)[C@H]1O` here?
Its Ki is 4.3 nM.

For `CO[C@H]1[C@@H](O)[C@H](n2ccc(=O)[nH]c2=O)O[C@@H]1[C@@H](O[C@@H]1OC(C(=O)N[C@H]2CCC[C@@H](C)NC2=O)=C[C@@H](O)[C@H]1O)C(N)=O`, which IC50 [1] is on record?
Its IC50 is 17 nM.

And the MIC [2]?
The MIC was 6.25 µg/mL (≈ 10.7 µM).

Which Ki [3] does the source give for `Nc1ncnc2c1ncn2[C@@H]1O[C@H](COS(=O)(=O)NC(=O)[C@@H](N)Cc2ccc(O)cc2)[C@@H](O)[C@H]1O` here?
Its Ki is 26 nM.

For `CN1C[C@H](O)[C@@H](C(=O)O)N(C)C(=O)[C@@H]1[C@H](O[C@@H]1O[C@H](CN)[C@@H](O)[C@H]1O)[C@H]1O[C@@H](n2ccc(=O)[nH]c2=O)[C@H](O)[C@@H]1O` [CAPRAZOL], which MIC [4] is on record?
Its MIC is 3.13 µg/mL (≈ 5.44 µM).

With `CN1C(=O)[C@H]([C@H](O[C@H]2O[C@@H](CN)[C@H](O)[C@@H]2O)[C@H]2O[C@@H](n3ccc(=O)[nH]c3=O)[C@H](O)[C@@H]2O)N(C)CC=C1C(=O)O` as the molecule, how does the MIC (Mycobacterium avium [5]) read?
Its MIC is 0.05 µg/mL (≈ 0.0897 µM).

With `C[C@H](NC(=O)N[C@@H](Cc1cccc(Cl)c1)C(=O)O)C(=O)N[C@H](C(=O)N/C=C1/C[C@@H](O)[C@H](n2ccc(=O)[nH]c2=O)O1)[C@H](C)NC(=O)[C@@H](N)Cc1ccc(O)cc1` as the molecule, how does the MIC (Pseudomonas aeruginosa [6]) read?
Its MIC is 64 µg/mL (≈ 81.5 µM).

For `Cc1cn([C@H]2C[C@H](N=[N+]=[N-])[C@@H](CO)O2)c(=O)[nH]c1=O` [ZIDOVUDINE], which MIC (Escherichia coli) is on record?
The MIC was 10 µg/mL (≈ 37.4 µM).

Which IC50 [7] does the source give for `NC[C@H]1O[C@@H](O[C@@H](Cc2cn(CCCCCCCCCCc3ccccc3)nn2)[C@H]2O[C@@H](n3ccc(=O)[nH]c3=O)[C@H](O)[C@@H]2O)[C@H](O)[C@@H]1O` here?
Its IC50 is 8000 nM.

What about the MIC (Candida albicans) of the same molecule?
The MIC was 20 µg/mL (≈ 29.7 µM).

For `CN(C[C@H](NC(=O)[C@H](CC[S+](C)[O-])NC(=O)N[C@@H](Cc1c[nH]c2ccccc12)C(=O)O)C(=O)N/C=C1/C[C@@H](O)[C@H](n2ccc(=O)[nH]c2=O)O1)C(=O)[C@@H](N)Cc1cccc(O)c1` (some centres undefined), which MIC [8] is on record?
The MIC was 8 µg/mL (≈ 9.24 µM).

What about the MIC (Pseudomonas aeruginosa [9]) of the same molecule?
The MIC was 8 µg/mL.

For `CCC(C)C(N)C(=O)NS(=O)(=O)OC[C@H]1O[C@@H](CCn2nnc(-c3ccc(Oc4ccccc4)cc3)n2)[C@H](O)[C@@H]1O` (some centres undefined), which MIC [10] is on record?
The MIC was 2 µg/mL (≈ 3.39 µM).

What about the MIC (Enterococcus faecium [11]) of the same molecule?
Its MIC is 2 µg/mL (≈ 3.39 µM).

And the MIC (Streptococcus pneumoniae)?
The MIC was 2 µg/mL (≈ 3.39 µM).

And the MIC [12]?
The MIC was 2 µg/mL (≈ 3.39 µM).

And the MIC (Enterococcus faecalis)?
The MIC was 2 µg/mL (≈ 3.39 µM).

What about the MIC (Streptococcus pyogenes [13]) of the same molecule?
Its MIC is 2 µg/mL (≈ 3.39 µM).

What about the MIC (Haemophilus influenzae) of the same molecule?
Its MIC is 2 µg/mL (≈ 3.39 µM).

And the MIC (Moraxella catarrhalis)?
The MIC was 2 µg/mL (≈ 3.39 µM).

And the MIC (Staphylococcus aureus [14])?
The MIC was 2 µg/mL (≈ 3.39 µM).

What about the MIC (Bacillus subtilis) of the same molecule?
The MIC was 2 µg/mL (≈ 3.39 µM).

What about the MIC (Klebsiella pneumoniae) of the same molecule?
The MIC was 2 µg/mL (≈ 3.39 µM).

Which MIC (Mycobacterium avium [15]) does the source give for `CCCCCCCCCC[C@H](CC(=O)O[C@H]1CN(C)[C@@H]([C@@H](O[C@@H]2O[C@H](CN)[C@@H](O)[C@H]2O)[C@H]2O[C@@H](n3ccc(=O)[nH]c3=O)[C@H](O)[C@@H]2O)C(=O)N(C)[C@@H]1C(=O)O)OC(=O)C[C@H](C)CC(=O)O` here?
Its MIC is 1.2 µg/mL.

With `CSCC[C@H](NC(=O)NC(Cc1cccc(O)c1)C(=O)O)C(=O)NC(CN(C)C(=O)[C@@H](N)C(Cc1cccc(O)c1)NCC(=O)O)C(=O)N/C=C1/C[C@@H](O)[C@H](n2ccc(=O)[nH]c2=O)O1` (some centres undefined) as the molecule, how does the MIC (Pseudomonas aeruginosa [16]) read?
Its MIC is 1.5 µg/mL (≈ 1.64 µM).

And the MIC (Pseudomonas aeruginosa [17])?
Its MIC is 0.1 µg/mL (≈ 0.109 µM).

What does the source list for `CCCCCCCCCCCCC[C@@H](CC(=O)O[C@H]1CN(C)[C@@H]([C@H](O[C@H]2O[C@@H](CN)[C@H](O)[C@@H]2O)[C@H]2O[C@@H](n3ccc(=O)[nH]c3=O)[C@H](OS(=O)(=O)O)[C@@H]2O)C(=O)N(C)[C@@H]1C(=O)O)OC(=O)C[C@H](C)CC(=O)O[C@@H]1O[C@@H](C)[C@H](OC)[C@@H](OC)[C@H]1OC`?
MIC (Streptococcus pyogenes [18]): 4 µg/mL; MIC (Enterococcus faecium [19]): 4 µg/mL; MIC (Staphylococcus aureus [20]): 4 µg/mL

Source: ChEMBL document CHEMBL5257035, “Nucleoside Derived Antibiotics to Fight Microbial Drug Resistance: New Utilities for an Established Class of Drugs?” (J Med Chem, 2016)
